Experimental data reported in patent US20130212738A1, “COMPOSITION FOR PHYTOCHELATIN TRANSPORT” (POSTECH ACADEMY-INDUSTRY FOUNDATION, priority 2010, published 2013).

What was measured:
[1] = tested on: atabcc1 atabcc2 double knock-out A. thaliana; conditions: in vivo
[2] = tested on: A. thaliana mesophyll vacuoles; experiment: PC2 transport into intact vacuoles isolated from A. thaliana mesophyll protoplasts; format: biochemical
[3] = target: T1, AtABCC2 (Arabidopsis thaliana, UniProt Q42093); format: biochemical, A. thaliana
T1 construct: expressed in transfected cells; host or cells: Saccharomyces cerevisiae SM7 (ycf1/yhl035c/yll015w/yll048c-deficient, expressing TaPCS1); microsomal vesicles

[4] = target: T2, AtABCC1 (Arabidopsis thaliana, UniProt Q9C8G9); experiment: PC2 transport into microsomal vesicles of SM7 yeast expressing AtABCC1; format: biochemical, A. thaliana; conditions: vanadate 1 mM, NH4Cl 5 mM, PC 25 μM
T2 construct: expressed in transfected cells; host or cells: Saccharomyces cerevisiae SM7 (ycf1/yhl035c/yll015w/yll048c-deficient, expressing TaPCS1); microsomal vesicles

[5] = target: PC2-As complex (phytochelatin PC2 in complex with As(III)); experiment: cell-based or functional assay

In the case of `O=[As]([O-])([O-])O.[Na+].[Na+]` [As(V), Na2HAsO4], the “growth of the atabcc1 atabcc2 knock-out line compared with the wild type” value [1] is reported as “dramatically inhibited”.

In the case of `[Cd]` [Cd, cadmium], the “growth of the atabcc1 atabcc2 knock-out line compared with the wild type” value [1] is reported as “dramatically inhibited”.

In the case of `[O]=[V]([O-])([O-])[O-]` [vanadate], the “residual transport activity (PC transport of isolated vacuoles)” value [2] is reported as 25±7%, the “inhibition of absorption of PC2—As complex into the yeast vesicle” value [3] is reported as “remarkably reduced” and the “inhibition of absorption of PC2—As complex into the yeast vesicle” value [4] is reported as “remarkably reduced”.

For AtABCC1 (from UniProt Q9C8G9 1-1622), the concentration of PC at half maximum of the absorption (transport) activities, 35S-PC2 uptake into yeast SM7 microsomal vesicles [5] was 350 µM.

With AtABCC2 (from UniProt Q42093 1-1623) the concentration of PC at half maximum of the absorption (transport) activities, 35S-PC2 uptake into yeast SM7 microsomal vesicles [5] was 350 µM.

With arsenite the “transport of arsenic in a non-chelated form (ICP-MS)” value [3] was “not transported”.
